Usually chromatographic logD stands for a lipophilicity value derived from retention on a column. High values mean higher lipophilicity, low ones lower lipophilicity. As a reminder, the pIC50 is the negative decadic logarithm of the IC50, by convention in mol/L.

The values that follow come from article PMC9268166, “Modeling of Anticancer Sulfonamide Derivatives Lipophilicity by Chemometric and Quantitative Structure-Retention Relationships Approaches” (Molecules, 2022).

Data set [1] is described as follows: IAM chromatography (IAM-HPLC), IAM.PC.DD2 column. Format: physicochemical. Particulars: for CHI (CHIIAM), Table S2: IAM chromatography, from mean of three retention times; for CHI (CHIIAM), Table S2 / logkIAM: pH 7.4; for logkIAM: logkIAM = 0.045 CHIIAM + 0.42; for CHIIAM: pH 7.4, 30 °C, acetonitrile gradient. From the text: (§1) For this reason, the next step of our study concerns the characterization of investigated sulfonamide derivatives using a chromatographic approach. Generally, in RP-HPLC, the interactions between solutes and the stationary phase surface are mainly governed by lipophilicity. Consequently, RP-HPLC is the primary tool for assessing the lipophilicity of xenobiotics. […] Generally, the chemical character of target solutes determines interactions between the molecule and the stationary phase that may occur. Considering the large variety of RP-HPLC beds and differences in specific surface area, the energy of the sorbent’s intermolecular interactions between solutes and chemical structures, four different reversed-phase stationary phases and IAM column were investigated during this study. The lipophilicity index was presented as a logkw value, so the retention factor was extrapolated to the pure water after calculation using a protocol based on two gradient measurements and DryLab software.
(§2) Since the biomimetic chromatography experiments are carried out at physiological pH to compare obtained results, all chromatographic experiments have been carried out at pH 7.4. […] Consequently, the chromatography lipophilicity indices refer to the distribution coefficient (logD) values, which better reflect the lipophilicity of ionized substances under physiological conditions.
(§3) All HPLC experiments were carried out using a Prominence-1 LC-2030C 3D HPLC system (Shimadzu, Japan) equipped with a DAD detector and controlled by the LabSolution system (version 5.90 Shimadzu, Japan). The stock solutions of solutes were diluted to obtain 100 μg/mL concentrations, and the injected volume was 10 μL. During this study, six different columns in terms of chemical modification of stationary phases were used. Retention times (tR) of investigated sulfonamides were collected, and their detection in all systems was performed at the wavelength characteristic for each compound, summarized in Table S1. For all chromatography systems, analysis was carried out at 40 °C, except for IAM chromatography, in which oven temperature was set to 30 °C. The CHIIAM and CHI18 indices of the target sulfonamides derivatives were obtained using the protocol proposed by Valko and co-workers. C18 chromatography was performed on a Waters-C18 column (150 mm × 3.9 mm; 5.0 µm; Symmetry; USA), with a 1.5 mL/min flow rate. The mobile phase was ammonium acetate buffer (50 mM) at pH 7.4 and acetonitrile as an organic modifier. The linear gradient from 2 to 98% ACN was applied from 0 to 30 min. IAM chromatography was executed on an IAM.PC.DD2 column ([…] × 4.6 mm; 10.0 µm; Regis Technologies, Morton Grove, IL, USA) additionally equipped with an IAM guard column with the same flow rate of 1.5 mL/min. The mobile phase was sodium phosphate buffer (10 mM) at pH 7.4 and acetonitrile as the organic phase. The linear gradient from 0 to 85% was applied within 5.25 min.

The nature of data set [2]: C18 chromatography (RP-HPLC), chromatographic hydrophobicity index. Format: physicochemical. To be noted: for chromatographic logD: Waters Symmetry C18 column, CHI log D = 0.0525 CHIC18 − 1.467, pH 7.4; for CHIC18: pH 7.4, 40 °C, acetonitrile gradient.
Description: as §1, §2, §3

Data set [3] in a line: C8 chromatography (RP-HPLC), logkw from two gradients with DryLab. It is filed as physicochemical. To be noted: for logkw, Table S4: C8 chromatography, pH 7.4, short and long gradient; for logkwC8: pH 7.4, 40 °C, retention factor extrapolated to 0% organic modifier.
Description: as §1, §2
(§4) For C8, cyanopropyl, and phenyl chromatography, according to the assumption proposed by Snyder and co-workers, appropriate logkw values (i.e., the retention factor logk extrapolated to 0% organic modifier, as an alternative to logP) were obtained. […] Dwell volume for these HPLC systems was measured at 0.780 mL, whereas the obtained dead times for used HPLC columns were equal to 1.530 min, 1.252 min, and 2.335 min for C8, SB-CN, and UK-Phenyl, respectively. The mobile phase was ammonium acetate buffer (50 mM) at pH 7.4 and acetonitrile as an organic modifier in each system. C8 chromatography was performed on Unison UK-C8 column (150 × 2 mm; 3.0 µm. Imtakt; USA) with 0.3 mL/min flow rate. Analyses were carried out in linear gradient from 30 to 100% within 15 min in short gradient and 30 min in long gradient. The Agilent SB-CN column (150 × 4.6 mm; 3.5 µm; Zorbax; USA) was used for the cyanopropyl chromatography. The CN chromatography analyses were carried out in linear gradient from 20 to 100%, which was applied from 0 to 20 min in short gradient, and from 0 to 40 min in long gradient. The flow rate was 1.5 mL/min. The column Unison UK-Phenyl (150 × 2 mm; 3.0 µm; Imtakt; USA) was used to perform phenyl chromatography. The flow rate was set to 0.2 mL/min. The phenyl analyses were carried out in linear gradient from 40 to 100%, which was applied from 0 to 20 min in short gradient, and from 0 to 40 min in long gradient. Each HPLC analysis was run in triplicate; in Tables S2–S6, obtained retention times are listed, whereas representative chromatograms are shown in Figure 9.

A short description of data set [4]: Cyanopropyl (CN) chromatography, logkw from two gradients with DryLab. Format: physicochemical. Particulars: for logkw, Table S5: Cyanopropyl chromatography, pH 7.4, short and long gradient; for logkwCN: pH 7.4, 40 °C, retention factor extrapolated to 0% organic modifier.
Description: as §1, §2, §4

Data set [5] is described as follows: Phenyl (Ph) chromatography, logkw from two gradients with DryLab. Format: physicochemical. To be noted: for logkw, Table S6: Phenyl chromatography, pH 7.4, short and long gradient; for logkwPh: pH 7.4, 40 °C, retention factor extrapolated to 0% organic modifier.
Description: as §1, §2, §4

Data set [6] deals with human colon cancer (HCT-116). Further details: method as in PMID 29772699, PMID 28122174, PMID 27338337, PMID 26506328. Particulars: HCT-116 cell line; cited from earlier work.

Regarding `O=S(=O)(Nc1cccc2nsnc12)c1ccc(-n2cccc2)cc1` [Compound 5], in data set [1], the “CHI (CHIIAM), Table S2” value is given as 31.4 and the logkIAM came out at 1.83. In addition, in data set [2], the chromatographic logD stood at 2.89 and the CHIC18 was 82.90. In addition, in data set [3], the “logkw, Table S4” value came out at 4.055 and the logkwC8 is 4.06. In addition, in data set [4], the “logkw, Table S5” value was determined as 2.300 and the logkwCN is given as 2.30. Besides, in data set [5], the “logkw, Table S6” value is listed as 4.079 and the logkwPh was 4.08. In addition, in data set [6], the negative logarithm of the IC50 (pIC50) was 4.64.

For the molecule `Cc1cc(S(=O)(=O)Nc2nnc(-c3ccccc3)c(=O)[nH]2)c(SCc2cccc3ccccc23)cc1Cl` [Compound 10], in data set [1], the “CHI (CHIIAM), Table S2” value is 39.1 and the logkIAM is given as 2.18. In data set [2], this molecule showed a chromatographic logD of 2.96 and a CHIC18 of 84.30. In data set [3], the “logkw, Table S4” value came out at 4.211 and the logkwC8 was 4.21. Further, in data set [4], the “logkw, Table S5” value turned out to be 2.251 and the logkwCN is reported as 2.25. In data set [5], the “logkw, Table S6” value was 4.193 and the logkwPh is listed as 4.19. Further, the pIC50 in data set [6] is recorded as 4.05.

Consider `COc1ccc(-c2cnnc(NS(=O)(=O)c3cc(C)c(Cl)cc3SCc3cccc4ccccc34)n2)cc1` [Compound 23], for which, in data set [1], the “CHI (CHIIAM), Table S2” value worked out at 41.1 and the logkIAM was 2.27. In data set [2], this molecule had a chromatographic logD of 3.05 and a CHIC18 of 86.10. In data set [3], the “logkw, Table S4” value came out at 4.120 and the logkwC8 is listed as 4.12. Moreover, in data set [4], the “logkw, Table S5” value turned out to be 2.478 and the logkwCN is reported as 2.48. In addition, in data set [5], the “logkw, Table S6” value is 4.401 and the logkwPh is 4.40. Moreover, in data set [6], the pIC50 was 4.42.

With `Cc1ccc(NC(=O)c2cc(S(=O)(=O)Nc3nncc(-c4ccc(C(F)(F)F)cc4)n3)c(SCc3ccccc3)cc2Cl)cc1` [Compound 17], in data set [1], the logkIAM is given as 2.28 and the CHIIAM came to 41.40. In data set [2], this molecule had a chromatographic logD of 3.25 and a CHIC18 of 89.90. In data set [3], the “logkw, Table S4” value was 4.490 and the logkwC8 is listed as 4.49. For the same molecule, in data set [4], the “logkw, Table S5” value worked out at 2.544 and the logkwCN was 2.54. Further, in data set [5], the “logkw, Table S6” value was found to be 4.540 and the logkwPh is 4.54. Besides, the pIC50 in data set [6] is recorded as 4.15.

As for `Cc1cc(S(=O)(=O)Nc2nncc(-c3cccc(F)c3)n2)c(SCc2cccc3ccccc23)cc1Cl` [Compound 22], in data set [1], the “CHI (CHIIAM), Table S2” value amounted to 42.2 and the logkIAM is 2.32. Moreover, in data set [2], the chromatographic logD worked out at 2.97 and the CHIC18 came out at 84.60. In addition, in data set [3], the “logkw, Table S4” value stood at 4.276 and the logkwC8 is on record as 4.28. Further, in data set [4], the “logkw, Table S5” value came to 2.356 and the logkwCN is given as 2.36. In data set [5], the “logkw, Table S6” value is reported as 4.254 and the logkwPh is given as 4.25. Moreover, in data set [6], the pIC50 is 4.31.

Turning to `COc1ccc(NC(=O)c2cc(S(=O)(=O)Nc3nncc(-c4ccc(OC)cc4)n3)c(SCc3ccccc3)cc2Cl)cc1` [Compound 20], in data set [1], the logkIAM worked out at 1.99 and the CHIIAM stood at 34.90. In data set [2], the chromatographic logD was 2.59 and the CHIC18 turned out to be 77.20. Further, in data set [3], the “logkw, Table S4” value worked out at 4.020 and the logkwC8 was 4.02. In addition, in data set [4], the “logkw, Table S5” value was 2.211 and the logkwCN is 2.21. For the same molecule, in data set [5], the “logkw, Table S6” value came to 3.789 and the logkwPh is on record as 3.79. Moreover, the pIC50 in data set [6] is listed as 4.14.

As for `CC(=O)NS(=O)(=O)c1cc(C)c(Cl)cc1SCc1cccc2ccccc12` [Compound 26], in data set [1], the “CHI (CHIIAM), Table S2” value was found to be 30.6 and the logkIAM came to 1.80. Moreover, in data set [2], the chromatographic logD worked out at 2.95 and the CHIC18 came out at 84.10. In data set [3], the “logkw, Table S4” value was found to be 3.655 and the logkwC8 is reported as 3.66. In data set [4], the “logkw, Table S5” value worked out at 1.763 and the logkwCN is 1.76. In data set [5], the “logkw, Table S6” value worked out at 2.870 and the logkwPh is 2.87.

Take `Cc1cc(S(=O)(=O)Nc2nnc(-c3ccccc3)c(=O)[nH]2)c(SCc2ccc(C(F)(F)F)cc2)cc1Cl` [Compound 8]: in data set [1], the “CHI (CHIIAM), Table S2” value is given as 36.7 and the logkIAM turned out to be 2.07. For the same molecule, in data set [2], the chromatographic logD was 2.88 and the CHIC18 came to 82.80. Besides, in data set [3], the “logkw, Table S4” value came out at 4.206 and the logkwC8 is reported as 4.21. Further, in data set [4], the “logkw, Table S5” value was 2.010 and the logkwCN is given as 2.01. In data set [5], the “logkw, Table S6” value is listed as 4.490 and the logkwPh is reported as 4.49. For the same molecule, in data set [6], the negative logarithm of the IC50 (pIC50) is recorded as 4.10.

Turning to `O=S(=O)(Nc1ccc(Cl)cc1)c1ccc(-n2cccc2)cc1` [Compound 6], in data set [1], the “CHI (CHIIAM), Table S2” value is 45.4 and the logkIAM stood at 2.46. In data set [2], this molecule yielded a chromatographic logD of 3.5 and a CHIC18 of 94.70. In data set [3], the “logkw, Table S4” value was 4.609 and the logkwC8 is on record as 4.61. In addition, in data set [4], the “logkw, Table S5” value amounted to 2.892 and the logkwCN is 2.89. In data set [5], the “logkw, Table S6” value came to 5.391 and the logkwPh is listed as 5.39. The pIC50 in data set [6] is given as 4.15.

For the molecule `Cc1cc(C)nc(NS(=O)(=O)c2ccc(-n3cccc3)cc2)n1` [Compound 7], in data set [1], the “CHI (CHIIAM), Table S2” value is listed as 24.3 and the logkIAM is 1.51. In data set [2], the chromatographic logD is 1.88 and the CHIC18 is given as 63.80. Moreover, in data set [3], the “logkw, Table S4” value stood at 3.300 and the logkwC8 was 3.30. Moreover, in data set [4], the “logkw, Table S5” value came to 1.780 and the logkwCN was 1.78. For the same molecule, in data set [5], the “logkw, Table S6” value amounted to 2.810 and the logkwPh is on record as 2.81. Besides, the negative logarithm of the IC50 (pIC50) in data set [6] is recorded as 4.16.

For `Cc1cc(S(=O)(=O)NC(=O)C=Cc2ccccc2)c(SCc2cccc3ccccc23)cc1Cl` [Compound 27], in data set [1], the “CHI (CHIIAM), Table S2” value is 39.6 and the logkIAM amounted to 2.20. Besides, in data set [2], the chromatographic logD stood at 2.37 and the CHIC18 is given as 73.10. In data set [3], the “logkw, Table S4” value was found to be 4.279 and the logkwC8 is given as 4.28. Also, in data set [4], the “logkw, Table S5” value worked out at 2.313 and the logkwCN is 2.31. Also, in data set [5], the “logkw, Table S6” value was determined as 4.460 and the logkwPh is on record as 4.46.
